For series [1] the following is noted: dosed orally; cited from earlier work.
A further series deals with HEK293 cells. Briefly: HEK293 cytotoxicity assay (CC50, CellTiterGlo). The format is cell-based, human. From the text:
Some exemplary assays and examples for assessing therapeutic efficacy, e.g., anticancer effects, of exemplary compounds of the invention are described herein or well known in the art. HEK293 is a human kidney cell line, and efficacy on HEK293 is considered to be predictive of usefulness for therapeutic treatment.
HEK293 cells were obtained from American Type Culture Collection (ATCC) (Rockville Maryland). Cells were maintained in Dulbecco's modified Eagle's medium (DMEM) (Invitrogen, Carlsbad, CA) with 10% fetal bovine serum (FBS), 10 mM HEPES and 1 mM sodium pyruvate. Cells were grown at 37° C. in a humidified incubator with a gas phase of 5% C02. Cells were grown for 24 hours in a Tripleflask (NUNC) to ˜95% confluence and then resuspended for dispensing at 125,000 cells/mL of DMEM, 10% FBS, 10 mM Hepes and 1 mM sodium pyruvate.
HEK293 cells were seeded in 96 well microtiter plates at 10000 cells/well. After 24 hours of incubation an equal volume of fresh media containing test compounds at given concentrations was added. Plates were then incubated and cells were allowed to proliferate for 48 hours at 37° C., 95% humidity, and 5% C02. […] A solution of Promega CellTiterGlo (100 microliters) was added by Thermo Combi and the plates were allowed to sit for 10 minutes before reading on a Perkin-Elmer EnVision with US LUM settings for 0.1 sec per well. […]

This is an account of results in patent US11779590B2, “AMP-activated protein kinase activating compounds and uses thereof” (Skylark Bioscience LLC, priority 2020, dated 2023).

In the case of `NC(=O)c1ncn([C@@H]2O[C@H](CO)[C@@H](O)[C@H]2O)c1N` [AICAR, 5-amino-1-D-ribofuranosyl-1H-imidazole-4-carboxamide], the bioavailability result in series [1] was “very low”.
As for `COP(=O)(OC)OC[C@H]1O[C@@H](n2cnc(C(N)=O)c2N)[C@H](O)[C@@H]1O` [SB00024], the “activity on HEK293 cells (CC50 assay)” value in the series on HEK293 cells (at 500 uM) was “inactive”.
Turning to `NC(=O)c1ncn([C@@H]2O[C@H](COP(=O)(O)Oc3ccc([N+](=O)[O-])cc3)[C@@H](O)[C@H]2O)c1N` [SB00039], in the series on HEK293 cells (ratio of potency (CC50) versus AICAR), the “potency relative to AICAR on HEK293 cells” value is “roughly 100 times”.
